From patent publication US20050153943A1, “Methods of simultaneously treating mucositis and fungal infection” (priority 2002, published 2005)
Values after ≈ are worked out from the molar mass of the structure shown. Structures can show the parent of a compound that is named as a salt. Marks after values point to notes of the source that are not given here.

Key:
Aspergilus Fumigatus = assay: IC50 and MIC on microplate agar gels (Example 40); type: cell-based; conditions: agar gel, 0.25-4.00 μg/ml, 30° C., 24 hours; NI = no detectable inhibition
Description: (§1) Each drug was dissolved in DMSO (1.0 mg/ml) as a stock solution and stored at −20° C. Just prior to use, each stock solution was thawed and diluted in DMSO to produce 6 different 100× concentrations. Potato dextrose agar was dissolved in distilled water (39 g/L) and sterilized at […] (250° F.) for 15 min. The agar solution was mixed with each drug (in a water bath at 60° C.) to make a series of final concentrations, i.e. 0.00, 0.25, 0.50, 1.00, 2.00, 4.00 μg/ml. The mixtures were then transferred to 24-well plates (1 ml/well). After the gel had formed, the fungus in PBS (spore count=1-5×10^4/ml) was inoculated by pipetting 10 μl onto each gel. The plates were incubated at 30° C. for different times, depending on the requirement of each species, e.g. 24 hours for Penicillium, Rhizopus, Tricothecium, Ulocladium, Absidia, Aspergilus, Caindida, Cunninghamella, 3 days for Scedosporium, and 5 days for Fonsecae and Phialophora.
(§2) “*” indicates better than or similar results to Amphotericin B. “NI” indicates no detectable inhibition.

Scedosporium Apiospermum = assay: IC50 and MIC on microplate agar gels (Example 40); type: cell-based; conditions: agar gel, 0.25-4.00 μg/ml, 30° C., 3 days; NI = no detectable inhibition
Description: as §1, §2

Absidia Species = assay: IC50 and MIC on microplate agar gels (Example 40); type: cell-based; conditions: agar gel, 0.25-4.00 μg/ml, 30° C., 24 hours; NI = no detectable inhibition
Description: as §1, §2

Fonsecae Species = assay: IC50 and MIC on microplate agar gels (Example 40); type: cell-based; conditions: agar gel, 0.25-4.00 μg/ml, 30° C., 5 days; NI = no detectable inhibition
Description: as §1, §2

Penicillium Species = assay: IC50 and MIC on microplate agar gels (Example 40); type: cell-based; conditions: agar gel, 0.25-4.00 μg/ml, 30° C., 24 hours; NI = no detectable inhibition
Description: as §1, §2

Candida Albicans = assay: IC50 and MIC on microplate agar gels (Example 40); type: cell-based; conditions: agar gel, 0.25-4.00 μg/ml, 30° C., 24 hours; NI = no detectable inhibition
Description: as §1, §2

Ulocladium Species = assay: IC50 and MIC on microplate agar gels (Example 40); type: cell-based; conditions: agar gel, 0.25-4.00 μg/ml, 30° C., 24 hours; NI = no detectable inhibition
Description: as §1, §2

Rhizopus Species = assay: IC50 and MIC on microplate agar gels (Example 40); type: cell-based; conditions: agar gel, 0.25-4.00 μg/ml, 30° C., 24 hours; NI = no detectable inhibition
Description: as §1, §2

[1] = system: 11 different species of fungi; assay: Summary of Example 40 over the whole panel; type: cell-based; conditions: 11 tested fungi, up to 4.00 μg/ml
Description: as §1, §2

Aspergillus f. [2] = assay: Direct comparison of CMT-3 and Amphotericin B, agar plates (Example 39); type: cell-based
Penicillium spores = assay: Fungistatic or fungicidal activity: pre-treatment of spores, dilution, regrowth on agar (Example 41); type: cell-based; conditions: for Growth rate of Penicillium in control cultures with low drug concentration: 0.01 and 0.05 μl/ml, no pre-treatment; for Type of antifungal activity (fungistatic or fungicidal): against Penicillium; for Growth of Penicillium on agar gels after pretreatment of spores: pretreatment with 10 and 50 μl/ml for 24 hours at 30° C., diluted 1000 times, 48 hours on agar
Description: In the pre-treatment phase of the experiment, Penicillium spores were suspended in PBS to achieve a spore count of 10^7/ml. CMT-3 and Amphotericin B were dissolved in DMSO to reach a concentration of 1.0 mg/ml as stock solutions. 10 or 50 μl aliquots of these stock solutions were added to the incubation mixture (containing 1.0 ml of 10^7/ml of Penicillium spores in PBS) to achieve a final concentration of 10 μg/ml or 50 μg/ml, respectively, for both drugs. The various incubations of Penicillium were carried out for 24 hours at 30° C.
After the pre-treatment phase, the reaction mixtures were diluted 1000 times with PBS, reducing the concentration of both drugs to 0.01 μg/ml or 0.05 μg/ml, and reducing the Penicillium spore count to 10^4/ml. These drug concentrations of both CMT-3 and Amphotericin B would not be expected to inhibit the growth of the viable Penicillium spores.
Controls were then prepared. Before incubation, each tube was either not diluted further, or diluted to ½ or ¼ with PBS to produce tubes with three different spore counts, ie, 10^4/ml, or 0.5×10^4/ml, or 0.25×10^4/ml. These cultures were then inoculated on potato dextrose agar gels in 24-well plates, and incubated at 30° C. for 48 hours to determine the rate of growth of the fungus as described before.
The controls were prepared from the suspension in the pre-treatment phase containing only Penicillium spores 10^7/ml, and PBS. This control was diluted by 1000 times with PBS to produce a spore count of 10^4/ml. 1.0 ml of this diluted spore suspension was added to eight tubes. The stock solutions of CMT-3 and Amphotericin B, and DMSO were also diluted by 1000 times with PBS (the new concentration being 1.0 μg/ml for both drugs and 0.1% for DMSO), and 10 or 50 μl of these solutions was added into the above tubes. The final concentrations in each tube was either 0.01 μg/ml or 0.05 μg/ml for both drugs (CMT-3 or AmB), or 0.001% or 0.005% for DMSO. These tubes were further treated as described above to determine the growth of the fungus as controls.

Aspergillus f. [3] = assay: Direct comparison of CMT-3 and Amphotericin B, agar plates (Example 39); type: cell-based; remark: listed apart in the source
Description: The plates were prepared as described above, using […], 0.50, 1.00 and 2.00 concentrations of each of the drugs tested. DMSO was used as a control

Rhizopus sp. = assay: Fungal growth on SABHI agar containing CMT (Example 38); type: cell-based; conditions: 25 μg/ml agar, Example 38
Description: The following fungi were inoculated onto potato dextrose agar (PDA) from stock cultures and incubated aerobically at 30° C.: Aspergillus [NT] 1022, Penicillium sp. (laboratory isolate), Candida albicans, ATCC 14053, and Rhizopus sp. […] The conidia were suspended in 0.9% saline and the turbidity was adjusted to match a 0.5 MacFarland standard (equivalent to approximately 1.5×10^8 cells). Candida albicans was suspended in saline and adjusted to 0.5 MacFarland in a similar manner. These suspensions were diluted 1:100 in sterile 0.9% saline. SABHI Agar (Difco) pH 7.0 was prepared in 100 ml amounts and sterilized at 121° C. for 15 min. […] SABHI Agar plates of each CMT and SAHBI agar without CMT using dimethylsulphoxide (DMSO) as a control were inoculated with 10 μl of conidia suspension of Aspergillus fumigatus, Penicillium sp. and Rhizopus sp. and 10 μl suspension of Candida albicans prepared as described above. The plates were then incubated aerobically for 24 hour and for 48 hours at 30° C. The results are set forth in Table 1 (24 hr. incubation) and Table 2 (48 hr. incubation). [table]

Phialophora Verrucosa = assay: IC50 and MIC on microplate agar gels (Example 40); type: cell-based; conditions: agar gel, 0.25-4.00 μg/ml, 30° C., 5 days; NI = no detectable inhibition
Description: as §1, §2

Tricothecium Species = assay: IC50 and MIC on microplate agar gels (Example 40); type: cell-based; conditions: agar gel, 0.25-4.00 μg/ml, 30° C., 24 hours; NI = no detectable inhibition
Description: as §1, §2

Cunninghamella Species = assay: IC50 and MIC on microplate agar gels (Example 40); type: cell-based; conditions: agar gel, 0.25-4.00 μg/ml, 30° C., 24 hours; NI = no detectable inhibition
Description: as §1, §2

[4] = Toxicity in vivo (statement); conditions: at 2.0 μg/ml concentration; unlike AmB
[5] = system: eleven different species of fungi; conditions: cited from earlier work
[6] = single dose of two 100 mg minocycline HCl tablets; cited from earlier work
[7] = 250 mg every six hours over a twenty-four hour period; cited from earlier work

Row | SMILES | IC50 (Aspergilus Fumigatus) | MIC (Aspergilus Fumigatus) | IC50 (Scedosporium Apiospermum) | MIC (Scedosporium Apiospermum) | IC50 (Absidia Species) | MIC (Absidia Species) | IC50 (Fonsecae Species) | MIC (Fonsecae Species) | IC50 (Penicillium Species) | MIC (Penicillium Species) | IC50 (Candida Albicans) | MIC (Candida Albicans) | IC50 (Ulocladium Species) | MIC (Ulocladium Species) | IC50 (Rhizopus Species) | MIC (Rhizopus Species) | Antifungal activity over the panel (summary in words) [1] | Growth grade at Conc. 0.25 μg/ml (Aspergillus f. [2]) | Growth rate of Penicillium in control cultures with low drug concentration (Penicillium spores) | Type of antifungal activity (fungistatic or fungicidal) (Penicillium spores) | other results
1 | C[C@@H]1[C@H](O)[C@@H](C)/C=C/C=C/C=C/C=C/C=C/C=C/C=C/[C@H](O[C@@H]2O[C@H](C)[C@@H](O)[C@H](N)[C@@H]2O)C[C@@H]2O[C@](O)(C[C@@H](O)C[C@@H](O)[C@H](O)CC[C@@H](O)C[C@@H](O)CC(=O)O[C@H]1C)C[C@H](O)[C@H]2C(=O)O [AmB, Amphotericin B] | 0.8 µg/mL (≈ 0.866 µM) | 2.0 µg/mL (≈ 2.16 µM) | 4.0 µg/mL (≈ 4.33 µM) | >4 µg/mL | 1.0 µg/mL (≈ 1.08 µM) | 4.0 µg/mL (≈ 4.33 µM) | 4.0 µg/mL (≈ 4.33 µM) | >4.0 µg/mL | 0.12 µg/mL (≈ 0.13 µM) | 0.25 µg/mL (≈ 0.271 µM) | 0.5 µg/mL (≈ 0.541 µM) | 1.0 µg/mL (≈ 1.08 µM) | 1.0 µg/mL (≈ 1.08 µM) | 2.0 µg/mL (≈ 2.16 µM) | 0.4 µg/mL (≈ 0.433 µM) | 1.0 µg/mL (≈ 1.08 µM) | the same or less antifungal activity than CMT-3 | 2 (50% reduction in growth of colonies compared to control.) | did not inhibit the growth | fungistatic | Growth of Penicillium on agar gels after pretreatment of spores (Penicillium spores): same rate of growth as PBS and DMSO controls; Growth grade at Conc. 0.125 μg/ml (Aspergillus f. [3]): 4 (Level of growth in the absence of anti-fungal agent (control).); Growth grade at Conc. 0.50 μg/ml (Aspergillus f. [3]): 1 (75% reduction in growth in colonies compared to control.); Fungal growth inhibited (Aspergillus f. [3]; 1.0 μg/ml): 100%; Growth grade at Conc. 1.00 μg/ml (Aspergillus f. [3]; 1.00 μg/ml): 0 (complete inhibition of growth.); Fungal growth inhibited (Aspergillus f. [3]; 2.0 μg/ml): 100%; Growth grade at Conc. 2.00 μg/ml (Aspergillus f. [3]): 0 (complete inhibition of growth.)
2 | NC(=O)C1=C(O)C[C@@H]2C[C@@H]3Cc4cccc(O)c4C(=O)C3=C(O)[C@]2(O)C1=O [COL 3, 6-demethyl-6-deoxy-4-dedimethylaminotetracycline] | 0.5 µg/mL (≈ 1.35 µM) | 1.0* μg/ml | 0.2 µg/mL (≈ 0.539 µM) | 1.5* μg/ml | 1.5 µg/mL (≈ 4.04 µM) | 4.0* μg/ml | 1.0 µg/mL (≈ 2.69 µM) | 4.0* μg/ml | 0.2 µg/mL (≈ 0.539 µM) | 0.5 µg/mL (≈ 1.35 µM) | 1.0 µg/mL (≈ 2.69 µM) | 2.0 µg/mL (≈ 5.39 µM) | 0.25 µg/mL (≈ 0.673 µM) | 1.0* μg/ml | 0.8 µg/mL (≈ 2.15 µM) | 2.0 µg/mL (≈ 5.39 µM) | effective on all 11 tested fungi | 2 (50% reduction in growth of colonies compared to control.) | did not inhibit the growth | fungicidal | Anti-fungal activity (summary in words) (Rhizopus sp.): inhibited; IC50 (Phialophora Verrucosa): 1.5 µg/mL (≈ 4.04 µM); MIC (Phialophora Verrucosa): 4.0* μg/ml; IC50 (Tricothecium Species): 0.2 µg/mL (≈ 0.539 µM); MIC (Tricothecium Species): 1.5* μg/ml; IC50 (Cunninghamella Species): 2.0 µg/mL (≈ 5.39 µM); MIC (Cunninghamella Species): 4.0* μg/ml; Toxicity in vivo [4]: very little toxicity; Growth of Penicillium on agar gels after pretreatment of spores (Penicillium spores): little or no growth; Anti-fungal activity in vitro (Lu et al.) [5]: anti-fungal activity with eight of the eleven species; Growth grade at Conc. 0.125 μg/ml (Aspergillus f. [3]): 4 (Level of growth in the absence of anti-fungal agent (control).); Growth grade at Conc. 0.50 μg/ml (Aspergillus f. [3]): 1 (75% reduction in growth in colonies compared to control.); Fungal growth inhibited (Aspergillus f. [3]; 1.0 μg/ml): 95%; Fungal growth inhibited (Aspergillus f. [3]; 2.0 μg/ml): 100%; Growth grade at Conc. 2.00 μg/ml (Aspergillus f. [3]): 0 (complete inhibition of growth.)
3 | CN(C)c1ccc(O)c2c1C[C@H]1C[C@H]3[C@H](N(C)C)C(O)=C(C(N)=O)C(=O)[C@@]3(O)C(O)=C1C2=O [minocycline HCl] |  |  |  |  |  |  |  |  |  |  |  |  |  |  |  |  |  |  |  |  | average minocycline serum level [6]: 2.24 µg/mL
4 | CN(C)[C@@H]1C(O)=C(C(N)=O)C(=O)[C@@]2(O)C(O)=C3C(=O)c4c(O)cccc4[C@@](C)(O)[C@H]3C[C@@H]12 [tetracycline HCl] |  |  |  |  |  |  |  |  |  |  |  |  |  |  |  |  |  |  |  |  | peak plasma concentration [7]: approximately 3 μg/ml
